Assay results published in patent US20240197728A1, “METHODS AND PHARMACEUTICAL COMPOSITIONS FOR TREATING REFRACTORY EPILEPSY” (INSERM (INSTITUT NATIONAL DE LA SANTÉ ET DE LA RECHERCHE …, priority 2021, published 2024).

Assays:
[1] = biological target: T1, KCC2 (Rattus norvegicus, UniProt Q63633); assay: KCC2 cluster immunocytochemistry in hippocampal neurons; type: cell-based; details: for change of KCC2 cluster area / change of KCC2 cluster density / change of KCC2 cluster intensity: vs DMSO
T1 construct: endogenous in cells; host or cells: primary rat hippocampal neurons (E18-19 Sprague-Dawley)
T1 sequence (Q63633 1-1116 isoform Q63633-2): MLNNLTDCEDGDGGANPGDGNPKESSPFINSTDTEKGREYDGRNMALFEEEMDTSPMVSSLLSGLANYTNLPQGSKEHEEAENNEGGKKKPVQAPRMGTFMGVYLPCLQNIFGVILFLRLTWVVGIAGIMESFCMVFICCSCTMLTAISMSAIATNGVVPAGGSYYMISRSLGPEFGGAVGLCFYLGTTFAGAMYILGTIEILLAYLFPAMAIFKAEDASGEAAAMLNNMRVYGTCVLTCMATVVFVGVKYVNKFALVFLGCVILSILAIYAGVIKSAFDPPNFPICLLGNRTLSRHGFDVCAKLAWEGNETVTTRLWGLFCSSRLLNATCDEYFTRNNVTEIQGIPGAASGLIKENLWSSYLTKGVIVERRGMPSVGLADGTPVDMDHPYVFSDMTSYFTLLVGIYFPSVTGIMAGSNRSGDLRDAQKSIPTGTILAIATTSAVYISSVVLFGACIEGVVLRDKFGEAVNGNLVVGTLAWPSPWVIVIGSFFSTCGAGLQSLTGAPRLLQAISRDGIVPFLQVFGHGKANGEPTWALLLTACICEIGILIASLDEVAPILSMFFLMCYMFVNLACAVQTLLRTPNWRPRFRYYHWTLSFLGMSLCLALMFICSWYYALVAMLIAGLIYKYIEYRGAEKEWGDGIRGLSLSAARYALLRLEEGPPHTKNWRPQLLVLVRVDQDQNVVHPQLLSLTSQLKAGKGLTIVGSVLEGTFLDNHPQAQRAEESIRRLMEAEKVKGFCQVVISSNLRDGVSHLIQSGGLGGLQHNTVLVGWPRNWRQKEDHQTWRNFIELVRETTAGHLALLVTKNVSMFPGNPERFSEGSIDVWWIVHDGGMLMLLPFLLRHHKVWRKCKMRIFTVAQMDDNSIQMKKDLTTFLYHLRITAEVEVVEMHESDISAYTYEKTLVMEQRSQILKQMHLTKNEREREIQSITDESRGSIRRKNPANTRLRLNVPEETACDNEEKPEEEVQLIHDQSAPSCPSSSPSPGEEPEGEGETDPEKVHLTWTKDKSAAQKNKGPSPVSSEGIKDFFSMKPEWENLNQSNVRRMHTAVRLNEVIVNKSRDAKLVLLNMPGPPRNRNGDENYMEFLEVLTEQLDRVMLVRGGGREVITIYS
Description: […] Drugs were added directly to the culture medium. For electrophysiology experiments, neurons were also recorded in presence of these drugs in the bath. For biochemistry experiments on rat hippocampo-cortical slices, slices were incubated with either DMSO (vehicle), CLP257, PCPZ, WNK463 or sodium orthovanadate for 2 hours in interface chambers set at 37° C. For human tissue experiments, slices were pre-incubated with either DMSO, CLP257 or PCPZ for 2 hours in interface chambers set at 37° C. and then also recorded in presence of these compounds.
Neurons were fixed for 15 min at room temperature (RT), with paraformaldehyde (PFA, 4% w/v in PBS). Cells were then washed in PBS, permeabilized with […] for 4 min at RT and then exposed to a blocking solution containing goat serum (20% v/v; Invitrogen) and 0.1% Triton X100 diluted in PBS. Neurons were incubated for 1 hour at RT with rabbit KCC2 antibody (1: 500; Sigma) and mouse MAP2 antibody (1:500; Chemicon). Neurons were then incubated for 45 min at RT with AlexaFluor 488-conjugated goat anti-mouse antibody (1:400; Jackson Labs) and with Cy3-conjugated goat anti-rabbit antibody (1:400; Jackson Labs). Neurons were then labeled with DAPI (1:2000, 5 min), washed in PBS and mounted on slides with Mowiol 844 (48 mg/ml, Sigma).
Images were acquired using a 63×objective (NA 1.40) mounted on an upright epifluorescence microscope (DM6000, Leica) equipped with a 12-bit cooled CCD camera (Micromax, Roper Scientific) operated with MetaMorph software (Roper Scientific). For KCC2 clusters detection, exposure time was adjusted to obtain best fluorescence to noise ratio and to avoid pixel saturation. This exposure time was maintained unchanged among cells and conditions. For experiments on non-transfected cells and for each neuron, dendritic sections were chosen using MAP2 labeling and then an image with tetramethylrhodamine (TRITC) filter was acquired to visualize KCC2 labeling.
KCC2 clusters analysis was performed using MetaMorph software (Roper Scientific), as previously described. Images were first flatten background filtered (kernel size, 3×3×2) to enhance cluster outline and a user-defined intensity threshold was applied to select clusters and avoid their coalescence. Clusters were delineated in the area of interest (AOI) and the corresponding regions were transferred onto raw images to quantify cluster density (mean KCC2 cluster number per 10 μm^2) and integrated cluster intensity (integrated fluorescence pixel intensity within clusters). For each culture, the analysis was done on 10 cells per condition and approx. 100 clusters per cell.

[2] = system: extrasynaptic GABAA receptors; assay: GABAA receptor-mediated currents evoked by focal isoguvacine or RubiGABA uncaging; type: cell-based, rat

increased KCC2 clustering observed ([1]; 10 μM PCPZ, 30 minutes) | change of KCC2 cluster area ([1]; 10 μM PCPZ, 2 h) | change of KCC2 cluster density ([1]; 10 μM PCPZ, 2 h) [%] | change of KCC2 cluster intensity ([1]; 10 μM PCPZ, 2 h) | increased KCC2 clustering observed ([1]; 100 μM CLP257, 30 minutes) | change of KCC2 cluster area ([1]; 100 μM CLP257, 2 h) | change of KCC2 cluster density ([1]; 100 μM CLP257, 2 h) [%] | change of KCC2 cluster intensity ([1]; 100 μM CLP257, 2 h) | SMILES | decay time constant of GABAA receptor-mediated currents ([2]; acute 10 μM PCPZ, isoguvacine 100 μM, control 127.66±10.23) [ms] | amplitude of GABAA receptor-mediated currents ([2]; acute 10 μM PCPZ, isoguvacine 100 μM, control 150.73±17.50) [pA] | decay time constant of GABAA receptor-mediated currents ([2]; 100 μM CLP257, RubiGABA 30 μM, control 124.39±9.12) [ms] | amplitude of GABAA receptor-mediated currents ([2]; 100 μM CLP257, RubiGABA 30 μM, control 164.70±4.56) [pA]
not after 30 minutes only | +45.25±18.07% | −6.58±8.37 | +109±61.44% | – | – | – | – | CN1CCN(CCCN2c3ccccc3Sc3ccc(Cl)cc32)CC1 [PCPZ, prochlorperazine] | 130.81 ± 10.48 | 157.51±25.46 | – | –
– | – | – | – | not after 30 minutes only | +36.30±20.40% | −3.48±4.20 | +33.94±13.64% | O=C1N=C(N2CCCCN2)S/C1=C\c1ccc(F)cc1O [CLP257, (5Z)-5-[(4-Fluoro-2-hydroxyphenyl)methylene]-2-(tetrahydro-1-(2H)-pyridazinyl)-4(5H)-thiazolone] | – | – | 218.22 ± 21.05 | 162.04±6.62
